Key:
GUK1 patient fibroblasts = assay: mtDNA content of proliferating GUK1 patient fibroblasts (quantitative Real-Time PCR, mtDNA/nDNA); type: cell-based, human; conditions: three different GUK1 patient proliferating fibroblasts, FIG. 3B
Experimental: Levels of mtDNA were measured by quantitative Real-Time PCR (in triplicate) and expressed as mtDNA/nDNA (12S/RNase P) and levels are expressed as percent relative to control fibroblast mtDNA. * indicates p<0.05. P values determined by Mann-Whitney U test. Initially, GUK1 mutant patient fibroblasts will be supplemented with dG. Based on published reports of deoxynucleoside supplementation for rescue of other models of mtDNA depletion, fibroblast culture media will be supplemented with dG at concentrations ranging from 1 μM to 400 μM (Camara, et al. 2014; Pontarin, et al. 2012; […], et al. 2003; Bulst, et al. 2012). Throughout each experiment, fibroblasts will be actively proliferating to emphasize use of the de novo dNTP synthesis pathway. The primary outcome measure will be mtDNA copy number comparing untreated and dG-supplemented fibroblasts. To complement the mtDNA results, it will be determined whether the mitochondrial dGTP concentration increases with dG supplementation by measuring mitochondrial dNTP pools. As a functional measure of mitochondrial rescue in treated fibroblasts, we will also measure OxPhos activity.

[1] = test system: dGK-deficient fibroblasts; conditions: cited from earlier work
[2] = mice; cited from earlier work

## Nc1nc2c(ncn2[C@H]2C[C@H](O)[C@@H](CO)O2)c(=O)[nH]1 [dG, deoxyguanosine]
GUK1 patient fibroblasts; dG at 1 μM alone
  mtDNA as compared to untreated: increase

## O=c1[nH]cnc2c([C@@H]3N[C@H](CO)[C@@H](O)[C@H]3O)c[nH]c12 [forodesine]
GUK1 patient fibroblasts; forodesine at 1 mM alone
  mtDNA as compared to untreated: increase
[1]
  efficacy of purine supplementation: enhances the efficacy of purine supplementation
[2]
  circulating dG: can increase circulating dG

— US20260021132A1, “PHARMACOLOGICAL THERAPY FOR MITOCHONDRIAL DNA DEPLETION DELETIONS SYNDROME INVOLVING MUTATIONS IN THE GUK1 GENE” (The Trustees of Columbia University in the City of New York, priority 2023, published 2026)
